Experimental data taken from patent US20040063662A1, “Selenophene anti-tumor agents” (priority 1996, published 2004).
Values after ≈ are worked out from the molar mass of the structure shown. Values joined by “and” are separate entries in the source; they are usually repeats but may differ in a detail not shown here. Equal values may be shown once. Read-outs that look alike come from different tables or passages of the source.

What was measured:
[1] = system: ras-transformed human bronchial epithelial cells (TBE); assay: Selective cytotoxicity microculture assay, ras-transformed bronchial epithelial cells; type: cell-based
[2] = molecular target: T1, 50:50 mixture of recombinant mouse PKCα and mouse PKCβ2; assay: Protein Kinase C (PKC) screening assay; type: biochemical; conditions: Inhibition of Protein Kinase C
T1 construct: The enzymes are expressed in Sf9 insect cells from recombinant baculovirus and partially purified on DEAE-cellulose and Sephacryl 200 gel filtration
From the text: The Protein Kinase C (PKC) screening assay utilized in the following experiments is similar to standard PKC assays used by many investigators. Its primary features are that 1) the assay utilizes a 50:50 mixture of recombinant mouse PKCα and mouse PKCβ2; 2) employs histone as phosphate-accepting substrate; and 3) the PKC enzymatic activity is activated with phosphatidylserine, TPA and low concentration of calcium, so that both calcium and TPA are somewhat limiting for the extent of activation. In this manner the assay is sensitive to inhibitors of PKC activation. A more detailed description of the assay is provided in the following paragraphs.
The recombinant PKC formulation is a mixture (equal parts by activity) of mouse PKCα and mouse PKCβ2. The enzymes are expressed in Sf9 insect cells from recombinant baculovirus and partially purified on DEAE-cellulose and Sephacryl 200 gel filtration. Sufficient PKC is added to each reaction to provide approximately 4 pmols phosphate transferred in 30 minute (per total reaction.) The reaction is linear over the time when 4 pmols of phosphate is transferred and the reaction remains linear well beyond this time frame.
The PKC screening assay is performed in 96 well polystyrene U bottom micro titer plates, in a total reaction volume of 50 ul. Solution manipulations are performed during the assay utilize a Rainin, motorized EDP-plus M8 eight-channel micropipettor.
In some cases 50% DMSO:water, water, or methanol is substituted (if essential) for the solvent. At least 25 μl of the highest concentration sample to be assayed is transferred to a well in a 96 well U-bottom polystyrene assay plate. Serial 5-fold or 10-fold dilutions (depending on the dose-range desired) are made using the EDP-plus M8 eight-channel pipettor in dilute mode and mixing by repipetting. Using the 8-channel pipettor, 2 μl of each dilution is transferred to the appropriate wells of the plate(s) to be used for each assay. Duplicate assays are performed for each dose, with each assay, allowing six wells (half the row) for three-dose assays, or 12 wells (the whole row) for six-dose assays. In general, extracts and fractions are assayed at three doses: 400, 40 an 4 ug/ml, while pure compounds are tested at six doses: 400, 80, 16, 3.2, 0.64, 0.128 ([…]).

[3] = Selective cytotoxicity microculture assay, human renal carcinoma; conditions: human, SCI (selectively cytotoxicity index), GI50 (RPTEC)/GI50 (A-498)
[4] = system: human renal carcinoma cells (A-498); assay: as above
[5] = system: normal human renal cells (RPTEC); assay: Selective cytotoxicity microculture assay, normal human renal cells; type: cell-based
[6] = Homo sapiens, Epithelial cell, read-out: GI50
[7] = Homo sapiens, A498, A-498 human renal carcinoma

| Compound | GI50 [1] [ng/mL] | GI50 [1, 6] [ng/mL] | IC50 [2] | selectivity ratio [3] | GI50 [4, 7] [ng/mL] | GI50 [5] | GI50 ([4]; A-498 human renal carcinoma) [ng/mL] |
| --- | --- | --- | --- | --- | --- | --- | --- |
| OCc1ccc(-c2ccc(-c3ccc[se]3)[se]2)[se]1 [compound 675246] | 2 (≈ 4.77 nM) | 3 (≈ 7.16 nM) | 3 × 10^0 μg/ml | > 1000 | 0.003 (≈ 0.00716 nM) | – | – |
| OCc1ccc(-c2ccc(-c3ccc(CO)[se]3)[se]2)[se]1 [compound 675247] | 20000 (≈ 44500 nM) | 30000 (≈ 66800 nM) | 10 µg/mL (≈ 22300 nM) | > 1000 | – | – | – |
| OCc1ccc(-c2ccc(-c3ccc(CO)s3)[se]2)s1 [compound 675343] | – | – | 30 µg/mL (≈ 84400 nM) | – | – | – | – |
| OCc1ccc(-c2ccc(-c3ccc[se]3)s2)[se]1 [compound 676631] | – | – | 2 × 10^0 μg/ml | – | – | – | – |
| OCc1ccc(-c2ccc(-c3ccc(CO)[se]3)s2)[se]1 [compound 676632] | – | – | 50 µg/mL (≈ 124000 nM) | > 1000 | 0.0003 (≈ 0.000746 nM) | 2 ng/mL and 0.3 ng/mL | 0.0002 (≈ 0.000497 nM) |
